# Columns and labels:
# Assay type in all cases: functional
# Klebsiella pneumoniae [1] = assay: Antimicrobial activity against CMY-2,CTX-M-14,TEM-2-like beta-lactamase producing Klebsiella pneumoniae isolate CUMCK2 by disk diffusion method in presence of beta-lactamase inhibitor clavulanic acid
# Escherichia coli [2] = assay: Antimicrobial activity against CMY-2 beta-lactamase producing Escherichia coli isolate CUMC201 by disk diffusion method
# Escherichia coli [3] = assay: Antimicrobial activity against CMY-2 beta-lactamase producing Escherichia coli isolate CUMC225 by disk diffusion method
# Escherichia coli [4] = assay: Antimicrobial activity against CTX-M-14-like, TEM-1-like beta-lactamase producing Escherichia coli isolate CUMC192 by disk diffusion method in presence of beta-lactamase inhibitor clavulanic acid
# Escherichia coli [5] = assay: Antimicrobial activity against CMY-2 beta-lactamase producing Escherichia coli isolate CUMC201 by disk diffusion method in presence of beta-lactamase inhibitor clavulanic acid
# Escherichia coli [6] = assay: Antimicrobial activity against CMY-2 beta-lactamase producing Escherichia coli isolate CUMC223 by disk diffusion method in presence of beta-lactamase inhibitor clavulanic acid
# Escherichia coli [7] = assay: Antimicrobial activity against CTX-M-15,OXA-30 beta-lactamase producing Escherichia coli isolate CUMC245 by disk diffusion method
# Escherichia coli [8] = assay: Antimicrobial activity against CMY-2 beta-lactamase producing Escherichia coli isolate CUMC181 by disk diffusion method in presence of beta-lactamase inhibitor clavulanic acid
# Escherichia coli [9] = assay: Antimicrobial activity against CTX-M-14-like, TEM-1-like beta-lactamase producing Escherichia coli isolate CUMC233 by disk diffusion method
# Klebsiella pneumoniae [10] = assay: Antimicrobial activity against CMY-2,CTX-M-14,TEM-2-like beta-lactamase producing Klebsiella pneumoniae isolate CUMCK2 by disk diffusion method
# Escherichia coli [11] = assay: Antimicrobial activity against CMY-2 beta-lactamase producing Escherichia coli isolate CUMC223 by disk diffusion method
# Escherichia coli [12] = assay: Antimicrobial activity against CTX-M-14, TEM-1-like beta-lactamase producing Escherichia coli isolate CUMC248 by disk diffusion method
# Escherichia coli [13] = assay: Antimicrobial activity against CMY-2 beta-lactamase producing Escherichia coli isolate CUMC190 by disk diffusion method in presence of beta-lactamase inhibitor clavulanic acid
# Escherichia coli [14] = assay: Antimicrobial activity against CTX-M-14, TEM-1-like beta-lactamase producing Escherichia coli isolate CUMC180 by disk diffusion method
# Escherichia coli [15] = assay: Antimicrobial activity against CMY-2 beta-lactamase producing Escherichia coli isolate CUMC243 by disk diffusion method in presence of beta-lactamase inhibitor clavulanic acid
# Escherichia coli [16] = assay: Antimicrobial activity against CMY-2 beta-lactamase producing Escherichia coli isolate CUMC181 by disk diffusion method
# Escherichia coli [17] = assay: Antimicrobial activity against CMY-2 beta-lactamase producing Escherichia coli isolate CUMC214 by disk diffusion method in presence of beta-lactamase inhibitor clavulanic acid
# Escherichia coli [18] = assay: Antimicrobial activity against CMY-2 beta-lactamase producing Escherichia coli isolate CUMC190 by disk diffusion method
# Escherichia coli [19] = assay: Antimicrobial activity against CTX-M-14, TEM-1 beta-lactamase producing Escherichia coli isolate CUMC174 by disk diffusion method
# Escherichia coli [20] = assay: Antimicrobial activity against CTX-M-14-like, TEM-1-like beta-lactamase producing Escherichia coli isolate CUMC233 by disk diffusion method in presence of beta-lactamase inhibitor clavulanic acid
# Escherichia coli [21] = assay: Antimicrobial activity against CMY-2 beta-lactamase producing Escherichia coli isolate CUMC243 by disk diffusion method
# Escherichia coli [22] = assay: Antimicrobial activity against CTX-M-14-like, TEM-1-like beta-lactamase producing Escherichia coli isolate CUMC192 by disk diffusion method
# Escherichia coli [23] = assay: Antimicrobial activity against CTX-M-14, TEM-1-like beta-lactamase producing Escherichia coli isolate CUMC248 by disk diffusion method in presence of beta-lactamase inhibitor clavulanic acid
# Klebsiella pneumoniae [24] = assay: Antimicrobial activity against SHV-12-like, SHV-1-like beta-lactamase producing Klebsiella pneumoniae isolate CUMCK9 by disk diffusion method
# Escherichia coli [25] = assay: Antimicrobial activity against CMY-2,CTX-M-14,TEM-2-like beta-lactamase producing Escherichia coli isolate CUMC215 by disk diffusion method
# Escherichia coli [26] = assay: Antimicrobial activity against CTX-M-14, TEM-1-like beta-lactamase producing Escherichia coli isolate CUMC241 by disk diffusion method in presence of beta-lactamase inhibitor clavulanic acid
# Escherichia coli [27] = assay: Antimicrobial activity against CTX-M-14, TEM-1-like beta-lactamase producing Escherichia coli isolate CUMC241 by disk diffusion method
# Escherichia coli [28] = assay: Antimicrobial activity against CTX-M-14, TEM-1-like beta-lactamase producing Escherichia coli isolate CUMC244 by disk diffusion method in presence of beta-lactamase inhibitor clavulanic acid
# Escherichia coli [29] = assay: Antimicrobial activity against CMY-2,TEM-2-like beta-lactamase producing Escherichia coli isolate CUMC224 by disk diffusion method
# Escherichia coli [30] = assay: Antimicrobial activity against CMY-2 beta-lactamase producing Escherichia coli isolate CUMC214 by disk diffusion method
# Escherichia coli [31] = assay: Antimicrobial activity against CTX-M-14-like, TEM-1-like beta-lactamase producing Escherichia coli isolate CUMC204 by disk diffusion method
# Escherichia coli [32] = assay: Antimicrobial activity against CMY-2,TEM-2-like beta-lactamase producing Escherichia coli isolate CUMC224 by disk diffusion method in presence of beta-lactamase inhibitor clavulanic acid
# Escherichia coli [33] = assay: Antimicrobial activity against CTX-M-14, TEM-1-like beta-lactamase producing Escherichia coli isolate CUMC180 by disk diffusion method in presence of beta-lactamase inhibitor clavulanic acid
# Escherichia coli [34] = assay: Antimicrobial activity against CTX-M-14-like, TEM-1-like beta-lactamase producing Escherichia coli isolate CUMC203 by disk diffusion method in presence of beta-lactamase inhibitor clavulanic acid
# Klebsiella pneumoniae [35] = assay: Antimicrobial activity against SHV-12-like, SHV-1-like beta-lactamase producing Klebsiella pneumoniae isolate CUMCK9 by disk diffusion method in presence of beta-lactamase inhibitor clavulanic acid
# Escherichia coli [36] = assay: Antimicrobial activity against CMY-2 beta-lactamase producing Escherichia coli isolate CUMC225 by disk diffusion method in presence of beta-lactamase inhibitor clavulanic acid
# Escherichia coli [37] = assay: Antimicrobial activity against CMY-2,CTX-M-14,TEM-2-like beta-lactamase producing Escherichia coli isolate CUMC215 by disk diffusion method in presence of beta-lactamase inhibitor clavulanic acid
# Escherichia coli [38] = assay: Antimicrobial activity against CTX-M-14, TEM-1-like beta-lactamase producing Escherichia coli isolate CUMC176 by disk diffusion method
# Escherichia coli [39] = assay: Antimicrobial activity against CTX-M-14, TEM-1 beta-lactamase producing Escherichia coli isolate CUMC174 by disk diffusion method in presence of beta-lactamase inhibitor clavulanic acid
# Escherichia coli [40] = assay: Antimicrobial activity against CTX-M-14-like, TEM-1-like beta-lactamase producing Escherichia coli isolate CUMC203 by disk diffusion method
# Escherichia coli [41] = assay: Antimicrobial activity against CTX-M-14, TEM-1-like beta-lactamase producing Escherichia coli isolate CUMC244 by disk diffusion method
# Escherichia coli [42] = assay: Antimicrobial activity against CTX-M-15,OXA-30 beta-lactamase producing Escherichia coli isolate CUMC245 by disk diffusion method in presence of beta-lactamase inhibitor clavulanic acid
# Escherichia coli [43] = assay: Antimicrobial activity against CTX-M-14, TEM-1-like beta-lactamase producing Escherichia coli isolate CUMC176 by disk diffusion method in presence of beta-lactamase inhibitor clavulanic acid
# Escherichia coli [44] = assay: Antimicrobial activity against CTX-M-14-like, TEM-1-like beta-lactamase producing Escherichia coli isolate CUMC204 by disk diffusion method in presence of beta-lactamase inhibitor clavulanic acid
smiles,measurement,setting,value
CO/N=C(\C(=O)N[C@@H]1C(=O)N2C(C(=O)O)=C(COC(C)=O)CS[C@H]12)c1csc(N)n1 [CEFOTAXIME],inhibition zone (IZ),Klebsiella pneumoniae [1],16 mm
same,inhibition zone (IZ),Escherichia coli [2],12 mm
same,inhibition zone (IZ),Escherichia coli [3],11 mm
same,inhibition zone (IZ),Escherichia coli [4],30 mm
same,inhibition zone (IZ),Escherichia coli [5],10 mm
same,inhibition zone (IZ),Escherichia coli [6],13 mm
same,inhibition zone (IZ),Escherichia coli [7],6 mm
same,inhibition zone (IZ),Escherichia coli [8],13 mm
same,inhibition zone (IZ),Escherichia coli [9],18 mm
same,inhibition zone (IZ),Klebsiella pneumoniae [10],11 mm
same,inhibition zone (IZ),Escherichia coli [11],13 mm
same,inhibition zone (IZ),Escherichia coli [12],12 mm
same,inhibition zone (IZ),Escherichia coli [13],11 mm
same,inhibition zone (IZ),Escherichia coli [14],17 mm
same,inhibition zone (IZ),Escherichia coli [15],12 mm
same,inhibition zone (IZ),Escherichia coli [16],13 mm
same,inhibition zone (IZ),Escherichia coli [17],12 mm
same,inhibition zone (IZ),Escherichia coli [18],6 mm
same,inhibition zone (IZ),Escherichia coli [19],16 mm
same,inhibition zone (IZ),Escherichia coli [20],32 mm
same,inhibition zone (IZ),Escherichia coli [21],11 mm
same,inhibition zone (IZ),Escherichia coli [22],15 mm
same,inhibition zone (IZ),Escherichia coli [23],28 mm
same,inhibition zone (IZ),Klebsiella pneumoniae [24],18 mm
same,inhibition zone (IZ),Escherichia coli [25],7 mm
same,inhibition zone (IZ),Escherichia coli [26],30 mm
same,inhibition zone (IZ),Escherichia coli [27],13 mm
same,inhibition zone (IZ),Escherichia coli [28],29 mm
same,inhibition zone (IZ),Escherichia coli [29],15 mm
same,inhibition zone (IZ),Escherichia coli [30],13 mm
same,inhibition zone (IZ),Escherichia coli [31],15 mm
same,inhibition zone (IZ),Escherichia coli [32],12 mm
same,inhibition zone (IZ),Escherichia coli [33],30 mm
same,inhibition zone (IZ),Escherichia coli [34],32 mm
same,inhibition zone (IZ),Klebsiella pneumoniae [35],32 mm
same,inhibition zone (IZ),Escherichia coli [36],11 mm
same,inhibition zone (IZ),Escherichia coli [37],8 mm
same,inhibition zone (IZ),Escherichia coli [38],17 mm
same,inhibition zone (IZ),Escherichia coli [39],30 mm
same,inhibition zone (IZ),Escherichia coli [40],17 mm
same,inhibition zone (IZ),Escherichia coli [41],14 mm
same,inhibition zone (IZ),Escherichia coli [42],30 mm
same,inhibition zone (IZ),Escherichia coli [43],31 mm
same,inhibition zone (IZ),Escherichia coli [44],30 mm
CC(C)(O/N=C(\C(=O)N[C@@H]1C(=O)N2C(C(=O)[O-])=C(C[n+]3ccccc3)CS[C@H]12)c1csc(N)n1)C(=O)O [CEFTAZIDIME],inhibition zone (IZ),Klebsiella pneumoniae [1],12 mm
same,inhibition zone (IZ),Escherichia coli [2],8 mm
same,inhibition zone (IZ),Escherichia coli [3],6 mm
same,inhibition zone (IZ),Escherichia coli [4],30 mm
same,inhibition zone (IZ),Escherichia coli [5],12 mm
same,inhibition zone (IZ),Escherichia coli [6],13 mm
same,inhibition zone (IZ),Escherichia coli [7],16 mm
same,inhibition zone (IZ),Escherichia coli [8],14 mm
same,inhibition zone (IZ),Escherichia coli [9],31 mm
same,inhibition zone (IZ),Klebsiella pneumoniae [10],8 mm
same,inhibition zone (IZ),Escherichia coli [11],6 mm
same,inhibition zone (IZ),Escherichia coli [12],25 mm
same,inhibition zone (IZ),Escherichia coli [13],13 mm
same,inhibition zone (IZ),Escherichia coli [14],29 mm
same,inhibition zone (IZ),Escherichia coli [15],12 mm
same,inhibition zone (IZ),Escherichia coli [16],6 mm
same,inhibition zone (IZ),Escherichia coli [17],13 mm
same,inhibition zone (IZ),Escherichia coli [18],8 mm
same,inhibition zone (IZ),Escherichia coli [19],27 mm
same,inhibition zone (IZ),Escherichia coli [20],32 mm
same,inhibition zone (IZ),Escherichia coli [21],7 mm
same,inhibition zone (IZ),Escherichia coli [22],28 mm
same,inhibition zone (IZ),Escherichia coli [23],29 mm
same,inhibition zone (IZ),Klebsiella pneumoniae [24],6 mm
same,inhibition zone (IZ),Escherichia coli [25],6 mm
same,inhibition zone (IZ),Escherichia coli [26],32 mm
same,inhibition zone (IZ),Escherichia coli [27],28 mm
same,inhibition zone (IZ),Escherichia coli [28],29 mm
same,inhibition zone (IZ),Escherichia coli [29],7 mm
same,inhibition zone (IZ),Escherichia coli [30],8 mm
same,inhibition zone (IZ),Escherichia coli [31],27 mm
same,inhibition zone (IZ),Escherichia coli [32],13 mm
same,inhibition zone (IZ),Escherichia coli [33],31 mm
same,inhibition zone (IZ),Escherichia coli [34],29 mm
same,inhibition zone (IZ),Klebsiella pneumoniae [35],26 mm
same,inhibition zone (IZ),Escherichia coli [36],11 mm
same,inhibition zone (IZ),Escherichia coli [37],7 mm
same,inhibition zone (IZ),Escherichia coli [38],30 mm
same,inhibition zone (IZ),Escherichia coli [39],30 mm
same,inhibition zone (IZ),Escherichia coli [40],28 mm
same,inhibition zone (IZ),Escherichia coli [41],26 mm
same,inhibition zone (IZ),Escherichia coli [42],29 mm
same,inhibition zone (IZ),Escherichia coli [43],33 mm
same,inhibition zone (IZ),Escherichia coli [44],30 mm

# — ChEMBL document CHEMBL1275514, “Surveillance of community-based reservoirs reveals the presence of CTX-M, imported AmpC, and OXA-30 beta-lactamases in urine isolates of Klebsiella pneumoniae and Escherichia coli in a U.S. community” (2008)
